pIC50, pKi: −log10 of the molar value.
Tests used:
Saos-2 = assay: Inhibition of cell growth, MTT assay, Saos-2; assay type: cell-based; details: Saos-2, MTT assay; for pIC50 / IC90: Homo sapiens
Procedure: (§1) The water-insoluble purple formazan product was then detected spectrophotometrically. […] Plates were incubated for four hours before addition of inhibitor compounds. Different concentrations of inhibitor compounds were added in 0.5% (v/v) dimethylsulfoxide (15 μL/well), and cells were incubated at 37° C. (5% CO2) for four to six days (depending on cell type). At the end of the incubation, MTT was added to a final concentration of 0.2 mg/mL, and cells were incubated for 4 hours more at 37° C. After centrifugation of the plates and removal of medium, the absorbance of the formazan (solubilized in dimethylsulfoxide) was measured at 540 nm.

CDK2/cyclin A = target: T1, CDK2/cyclin A (Homo sapiens, UniProt P24941); assay: Inhibition of CDK2/cyclin A retinoblastoma kinase activity; assay type: biochemical; details: read-out: Ki CDK 2/A
T1 construct: made in house; host or cells: CDK2: insect cells (baculovirus); cyclin A: E. coli, then limited proteolysis
Procedure: (§2) Cyclin-dependent kinase activity was measured by quantifying the enzyme-catalyzed, time-dependent incorporation of radioactive phosphate from [^32P]ATP or [^33P]ATP into a protein substrate. Unless noted otherwise, assays were performed in 96-well plates in a total volume of 50 μL, in the presence of 10 mM HEPES (N-[2-hydroxyethyl]piperazine-N′-[2-ethanesulfonic acid]) (pH 7.4), 10 mM MgCl2, 25 μM adenosine triphosphate (ATP), 1 mg/mL ovalbumin, 5 μg/mL leupeptin, 1 mM dithiothreitol, 10 mM β-glycerophosphate, 0.1 mM sodium vanadate, 1 mM sodium fluoride, 2.5 mM ethylene glycol-bis(β-aminoethyl ether)-N,N,N′N′-tetraacetic acid (EGTA), 2% (v/v) dimethylsulfoxide, and 0.03-0.4 μCi [^32/33P]ATP per reaction. Reactions were initiated with enzyme, incubated at 30° C., and terminated after 20 minutes by the addition of ethylenediaminetetraacetic acid (EDTA) to 250 mM. The phosphorylated substrate was then captured on a nitrocellulose or phosphocellulose membrane using a 96-well filtration manifold, and unincorporated radioactivity was removed by repeated washing with 0.85% phosphoric acid. Radioactivity was quantified by exposing the dried membranes to a phosphorimager.
(§3) Apparent Ki values were measured by assaying enzyme activity in the presence of different inhibitor compound concentrations and subtracting the background radioactivity measured in the absence of enzyme. The kinetic parameters (kcat, Km for ATP) were measured for each enzyme under the usual assay conditions by determining the dependence of initial rates on ATP concentration. Inhibition data were fit to an equation for competitive inhibition using Kaleidagraph (Synergy Software), or were fit to an equation for competitive tight-binding inhibition using the software KineTic (BioKin, Ltd.).
CDK2 was purified using published methodology (Rosenblatt et al., “Purification and Crystallization of Human Cyclin-dependent Kinase 2,” J. Mol. Biol., vol. 230, 1993, pp. 1317-1319) from insect cells that had been infected with a baculovirus expression vector. […] Purified, proteolyzed cyclin A was included in the assay at a three- to five-fold molar excess to CDK2. Alternatively, a complex of CDK2 and proteolyzed cyclin A was prepared and purified by gel filtration. The substrate for this assay was the same Rb substrate fragment used for the CDK4 assays, and the methodology of the CDK2/cyclin A and the CDK4/cyclin D3 assays was essentially the same, except that CDK2 was present at 150 nM or 5 nM. Ki values were measured as described above.

U2-OS = assay: Inhibition of cell growth, MTT assay, U2-OS; assay type: cell-based; details: for pIC50 / IC90: Homo sapiens, U2OS; for % inhibition of growth in parentheses after >25: concentration not given
Procedure: as §1

[1] = target: T2, human CDK1 (cdc2) and cyclin B (Homo sapiens, UniProt P06493); assay: Inhibition of CDK1(cdc2)/cyclin B histone H1 kinase activity; assay type: biochemical; details: read-out: Ki CDK 1/B
T2 construct: purchased New England Biolabs (Beverly Mass.)
T2 sequence (P06493 whole entry): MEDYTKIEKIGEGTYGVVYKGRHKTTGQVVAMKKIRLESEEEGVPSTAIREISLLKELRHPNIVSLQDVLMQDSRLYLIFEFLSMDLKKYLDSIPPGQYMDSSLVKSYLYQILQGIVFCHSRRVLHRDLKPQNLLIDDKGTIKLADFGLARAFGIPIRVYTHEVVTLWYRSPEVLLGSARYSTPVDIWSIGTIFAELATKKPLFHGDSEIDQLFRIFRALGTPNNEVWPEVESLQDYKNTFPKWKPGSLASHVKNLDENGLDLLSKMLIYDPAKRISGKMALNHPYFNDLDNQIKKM
T2 sequence (P14635 whole entry partner): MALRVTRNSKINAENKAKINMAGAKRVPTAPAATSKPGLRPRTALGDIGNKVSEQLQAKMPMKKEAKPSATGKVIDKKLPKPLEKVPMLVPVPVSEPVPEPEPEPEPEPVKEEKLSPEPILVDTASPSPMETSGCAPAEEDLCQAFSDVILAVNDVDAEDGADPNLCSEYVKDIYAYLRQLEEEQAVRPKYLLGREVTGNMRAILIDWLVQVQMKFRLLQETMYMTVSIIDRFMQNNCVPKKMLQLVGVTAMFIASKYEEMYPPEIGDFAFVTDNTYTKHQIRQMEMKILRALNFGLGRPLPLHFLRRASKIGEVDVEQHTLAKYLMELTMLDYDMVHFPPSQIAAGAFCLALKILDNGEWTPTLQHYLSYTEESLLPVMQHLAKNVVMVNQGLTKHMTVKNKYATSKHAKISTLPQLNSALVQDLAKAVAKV
Procedure: as §2, §3
The complex of human CDK1 (cdc2) and cyclin B was purchased from New England Biolabs (Beverly Mass.). Alternatively, a CDK1/glutathione-S-transferase-cyclin B1 complex was purified using glutathione affinity chromatography from insect cells that had been co-infected with the corresponding baculovirus expression vectors. The assay was executed as described above at 30° C. using 2.5 units of cdc2/cyclin B, 10 μg Histone H1 protein, and 0.1-0.3 μCi [^32/33P]ATP per assay. Phosphorylated histone substrate was captured by microfiltration on a phosphocellulose P81 membrane and quantified using a phosphorimager as described above. Ki values were measured using the described curve-fitting programs.

[2] = target: T3, complex of human CDK4 and cyclin D3 (Homo sapiens, UniProt P11802); assay: Inhibition of CDK4/cyclin D retinoblastoma kinase activity (D-type cyclin is D3); assay type: biochemical; details: superscript a: D-type cyclin is D3; apparent Ki; read-out: Ki CDK 4/D
T3 construct: made in house; host or cells: insect cells, co-infected with baculovirus
T3 sequence (P11802 whole entry): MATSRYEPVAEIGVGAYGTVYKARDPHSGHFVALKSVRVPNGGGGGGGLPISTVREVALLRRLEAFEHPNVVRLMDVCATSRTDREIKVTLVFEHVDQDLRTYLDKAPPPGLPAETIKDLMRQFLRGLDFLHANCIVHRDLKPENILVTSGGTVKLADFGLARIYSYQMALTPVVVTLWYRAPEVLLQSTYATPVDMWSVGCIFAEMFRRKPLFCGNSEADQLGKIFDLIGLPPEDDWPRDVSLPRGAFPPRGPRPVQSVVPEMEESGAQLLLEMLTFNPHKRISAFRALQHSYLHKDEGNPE
T3 sequence (P30281 whole entry partner): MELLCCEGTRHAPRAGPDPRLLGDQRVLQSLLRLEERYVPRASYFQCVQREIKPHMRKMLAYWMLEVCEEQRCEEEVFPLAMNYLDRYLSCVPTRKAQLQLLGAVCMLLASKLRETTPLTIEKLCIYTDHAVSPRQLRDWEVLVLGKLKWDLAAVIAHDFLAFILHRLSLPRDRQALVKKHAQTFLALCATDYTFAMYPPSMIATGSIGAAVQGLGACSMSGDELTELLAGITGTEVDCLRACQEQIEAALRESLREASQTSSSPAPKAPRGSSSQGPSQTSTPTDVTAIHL
In short: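 Apparent Ki derived by fitting background-corrected activity to competitive (or, for tight binders, competitive tight-binding) equations with measured ATP Km. Rb phosphorylation by radiolabelled ATP was measured at 30°C, 20 min standard or 60 min at 5 nM complex for tight binders, via nitrocellulose capture and phosphorimager.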

HCT116 = assay: Inhibition of cell growth, MTT assay, HCT116; assay type: cell-based, human; details: Homo sapiens, HCT-116
Procedure: as §1

| SMILES | pIC50 (Saos-2) | IC90 (Saos-2) [µM] | pKi (CDK2/cyclin A) | pIC50 (U2-OS) | IC90 (U2-OS) [µM] | pKi [1] | pKi [2] | pIC50 (HCT116) | IC90 (HCT116) [µM] | % inhibition of growth in parentheses after >25 (U2-OS) | % inhibition of growth in parentheses after >25 (Saos-2; concentration not given) [%] |
| --- | --- | --- | --- | --- | --- | --- | --- | --- | --- | --- | --- |
| Cc1cc([N+](=O)[O-])sc1C(=O)c1sc(Nc2ccc(S(N)(=O)=O)cc2)nc1N [C(95), 4-[4-Amino-5-(3-methyl-5-nitro-thiophene-2-carbonyl)-thiazol-2-ylamino]-benzenesulfonamide] | 5.74 | 4.5 | > 7.30 | 5.41 | 5.8 | 7.12 | 7.60 | 5.82 | 3 | – | – |
| CN(C)S(=O)(=O)c1ccc(Nc2nc(N)c(C(=O)c3c(F)cccc3F)s2)cc1 [C(109), 4-[4-Amino-5-(2,6-difluoro-benzoyl)-thiazol-2-ylamino]-N,N-dimethyl-benzenesulfonamide] | 5.82 | 14 | 7.55 | 5.33 | 19 | 7.46 | 7.08 | – | – | – | – |
| Cc1ccc(C(=O)c2sc(Nc3ccc(S(N)(=O)=O)cc3)nc2N)c(C)c1 [C(35), 4-[4-Amino-5-(2,4-dimethyl-benzoyl)-thiazol-2-ylamino]-benzenesulfonamide] | 5.10 | 20 | 7.64 | 4.92 | 22 | – | 7.96 | 5.05 | 19 | – | – |
| CNS(=O)(=O)c1ccc(Nc2nc(N)c(C(=O)c3c(F)cccc3F)s2)cc1 [C(108), 4-[4-Amino-5-(2,6-difluoro-benzoyl)-thiazol-2-ylamino]-N-methyl-benzenesulfonamide] | 6.51 | 3.2 | 8.17 | 5.85 | 4.8 | 8.05 | 7.64 | – | – | – | – |
| Nc1nc(Nc2ccc(S(N)(=O)=O)cc2)sc1C(=O)c1c(Cl)cc(Cl)cc1Cl [C(107), 4-[4-Amino-5-(2,4,6-trichloro-benzoyl)-thiazol-2-yl-amino]-benzenesulfonamide] | 5.24 | 12 | 7.90 | 5.10 | 12 | – | 7.86 | 5.60 | 7 | – | – |
| Nc1nc(Nc2ccc3nc[nH]c3c2)sc1C(=O)c1c(Cl)cc(Br)c(N)c1Cl [C(91), [4-Amino-2-(1H-benzoimidazol-6-ylamino)-thiazol-5-yl]-(3-amino-4-bromo-2,6-dichloro-phenyl)-methanone] | 5.23 | 23 | 7.09 | 4.72 | > 25 | – | 8.17 | 5.33 | 18 | – | – |
| CN1CCN(c2ccc(Nc3nc(N)c(C(=O)c4c(Cl)cccc4Cl)s3)cc2)CC1 [C(71), {4-Amino-2-[4-(4-methyl-piperazin-1-yl)-phenylamino]-thiazol-5-yl}-(2,6-dichloro-phenyl)-methanone] | – | – | 6.32 | – | – | 6.08 | – | – | – | – | – |
| CN1CCN(S(=O)(=O)c2ccc(Nc3nc(N)c(C(=O)c4c(F)cccc4F)s3)cc2)CC1 [C(116), {4-Amino-2-[4-(4-methyl-piperazine-1-sulfonyl)-phenylamino]-thiazol-5-yl}-(2,6-difluoro-phenyl)-methanone] | – | – | 6.92 | – | – | 7.11 | 6.92 | – | – | – | – |
| CN1CCN(c2ccc(Nc3nc(N)c(C(=O)c4c(F)cccc4C(F)(F)F)s3)cc2)CC1 [C(100), {4-Amino-2-[4-(4-methyl-piperazin-1-yl)-phenylamino]-thiazol-5-yl}-(2-fluoro-6-trifluoromethyl-phenyl)-methanone] | – | – | 6.21 | – | – | 6.04 | – | – | – | – | – |
| Cc1ccc(C(=O)c2sc(Nc3ccc4nc[nH]c4c3)nc2N)c(C)c1 [C(20), [4-Amino-2-(1H-benzoimidazol-6-ylamino)-thiazol-5-yl]-(2,4-dimethyl-phenyl)-methanone] | 5.31 | 13 | 6.84 | 5.19 | > 25 | – | 7.66 | 5.21 | 25 | (74%) | – |
| Cc1ccsc1C(=O)c1sc(Nc2ccc3nc[nH]c3c2)nc1N [C(19), [4-Amino-2-(1H-benzoimidazol-6-ylamino)-thiazol-5-yl]-(3-methyl-thiophen-2-yl)-methanone] | 5.15 | 18 | 6.56 | 4.82 | > 25 | – | 7.80 | 5.05 | 23 | 77% | – |
| CC(C)(C)OC(=O)N1CCN(c2ccc(Nc3nc(N)c(C(=O)c4c(F)cccc4F)s3)cc2)CC1 [C(101), 4-Amino-2-[4-(1-tert-butoxycarbonyl-piperazine-4-yl)-phenylamino]-thiazol-5-yl-(2,6-difluorophenyl)-methanone] | – | – | 6.52 | – | – | 6.49 | 6.99 | – | – | – | – |
| CN1CCN(c2ccc(Nc3nc(N)c(C(=O)c4c(F)cccc4F)s3)cc2)CC1 [C(80), {4-Amino-2-[4-(4-methyl-piperazin-1-yl)-phenylamino]-thiazol-5-yl}-(2,6-difluoro-phenyl)-methanone] | – | – | 6.66 | – | – | 6.49 | – | – | – | – | – |
| Nc1nc(Nc2ccc(S(=O)(=O)NCC3CCNCC3)cc2)sc1C(=O)c1c(F)cccc1F [J(4), 4-[4-Amino-5-(2,6-difluoro-benzoyl)-thiazol-2-ylamino]-N-piperidin-4-ylmethyl-benzenesulfonamide] | – | – | 7.87 | – | – | 7.66 | 7.99 | – | – | – | – |
| Nc1nc(Nc2ccc(N3CCOCC3)cc2)sc1C(=O)c1c(Cl)cncc1Cl [C(69), {4-Amino-2-[4-morpholin-4-yl-phenylamino]-thiazol-5-yl}-(3,5-dichloro-pyridin-4-yl)-methanone] | 4.92 | ≥ 26 | 6.20 | 4.85 | ≥ 26 | – | 7.70 | 5.30 | 15 | – | – |
| CC(=O)N1CCN(c2ccc(Nc3nc(N)c(C(=O)c4c(Cl)cccc4Cl)s3)cc2)CC1 [C(97), 2-[4-(1-Acetyl-piperazin-4-yl)-phenylamino]-4-amino-thiazol-5-yl-(2,6-dichlorophenyl)-methanone] | 5.05 | 20 | 6.41 | 5.00 | 21 | – | 8.07 | 5.41 | 11 | – | – |
| Nc1nc(Nc2ccc(S(N)(=O)=O)cc2)sc1C(=O)c1c(Cl)cc(C(F)(F)F)cc1Cl [C(38), 4-[4-Amino-5-(2,6-dichloro-4-trifluoromethyl-benzoyl)-thiazol-2-ylamino]-benzenesulfonamide] | 5.52 | > 25 | 7.41 | 4.96 | > 25 | – | 7.60 | 5.37 | 19 | 87% | 80 |
| Cc1cc(N)sc1C(=O)c1sc(Nc2ccc(S(N)(=O)=O)cc2)nc1N [D(5)] | 4.77 | 25 | 6.63 | < 4.60 | – | – | 6.80 | 5.72 | 5 | – | – |

Reference: patent publication US6569878B1, “Substituted 4-amino-thiazol-2-yl compounds as cyclin-dependent kinase inhibitors” (Agouron Pharmaceuticals Inc., priority 1997, dated 2003)
